PMC4082028 (Biochemistry, 2013)

Molecular target: Aβ40 (amyloid β-protein, monomer) (Homo sapiens, UniProt P05067)
Test: […]-1H HSQC NMR titration
Format: binding

Aβ40 (amyloid β-protein, monomer), sequence (P05067 672-711 limits assumed): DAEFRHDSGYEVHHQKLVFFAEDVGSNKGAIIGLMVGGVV

- Kd: 310 ± 130 µM
SMILES: COc1ccc(/C=C/C(=O)Nc2ccccc2C(=O)O)cc1OC [tranilast, N-[3,4-Dimethoxycinnamoyl]-anthranilic acid]
